Test results: patent US20050186237A1, “Bird repellent” (priority 2002, published 2005)
Marks after values point to notes of the source that are not given here.

Legend:
[1] = test system: wild possums; assay: Palatability of treated baits at possum-specific bait stations; type: in vivo, Trichosurus vulpecula
Source text: (§1) To determine the palatability of baits to wild possums and wild rats, possum-specific bait stations and rat-specific bait stations were established in bush-pasture margin and forest habitats (see FIG. 1 and FIG. 2).
The possum-specific bait station (FIG. 1) is mounted on an elevated wire stake 4 with bait 2 attached in a perforated bag 1 at top of wire 4. A plastic disc 3 is used to stop rodents (not shown) climbing wire 4 has plasticine (not shown) on it to record animal activity.
(§2) The bait stations (FIGS. 1 and 2) enable determination of the response of possums or rats to bait 2. Plasticine 5 is used to record the presence (e.g. footprints, claw marks, bite marks) and species of animal present at the bait station.
(§3) In this example the repellence of neem (a known repellent), lime (a known repellent), anthraquinone and d-pulegone (compounds of the present invention) in cereal, carrot and paste baits are tested on wild possums and rats.
(§4) The following bait treatments are compared: • standard (solution of dye+water+0.1% cinnamon oil) • cinnamamide (solution of dye+water+0.5% cinnamamide) • neem (solution of dye+water+2% neem oil) • lime (solution of dye+water+2% agricultural lime) • anthraquinone (solution of dye+water+0.75% anthraquinone formulation). • d-pulegone (solution of dye+water+1% d-pulegone) • salt (solution of dye+water+salt (10% of total bait weight))
(§5) Treatments are applied to the cereal and carrot bait surface at a rate of 10% of total bait weight. The treatments are applied to the paste bait by mixing the solution through the bait, again at a rate of 10% of total bait weight.
(§6) The treatments are placed on the bait stations as described above and possum and rat activity measured.
(§7) The following bait treatments were compared (only carrot baits are compared): • standard (solution of dye+water+0.1% cinnamon oil) • anthraquinone 1 (solution of dye+water+1% anthraquinone formulation) • anthraquinone 2 (solution of dye+water+2% anthraquinone formulation) • d-pulegone 1 (solution of dye+water+1% d-pulegone) • d-pulegone 2 (solution of dye+water+2% d-pulegone) • combination 1 (solution of dye+water+1% anthraquinone formulation+1% d-pulegone) • combination 2 (solution of dye+water+2% anthraquinone formulation+2% d-pulegone) • salt (solution of dye+water+salt (10% of total bait weight))
(§8) All quantities given in percent by weight and all bait treatment, bait station set-up and subsequent measurement are as described in Example 1.

[2] = test system: wild rats; assay: Palatability of treated baits at rat-specific bait stations; type: in vivo, Rattus spp.
Description: as §1
The rat-specific bait station (FIG. 2) is an approximately 60 mm diameter tube 6 with bait 2 placed in the centre and tube 6 is pinned to ground with holding stake 4. Plasticine 5 is added at either end of the tube 6 to record animal activity.
as §2, §3, §4, §5, §6, §7, §8

[3] = test system: wild sparrows; assay: Sparrow feed table dose response and combination test on treated wheat (Example 7); type: in vivo; settings: FIGS. 6-8; result in words
Source text: Wild sparrow tests were used to determine the effect of the individual repellency compared with the combination repellency.
On sparrow feed tables, sparrows were offered a choice between control wheat and three doses of repellent treated wheat.

[4] = test system: house sparrows; assay: Sparrow treated wheat choice test, 4-day periods (Example 8, Experiment 1); type: in vivo, Passer domesticus; settings: mean daily percentage of wheat eaten over 4-day test periods; choice with plain wheat
Description: The feeding behavior of free-ranging house sparrows (Passer domesticus) presented wheat treated with anthraquinone paired with either a novel visual cue (blue dye), cinnamon oil (containing primarily olfactory cues), or d-pulegone (containing olfactory and taste cues), was recorded, to determine the suitability of repellent combinations for preventing non-target birds from consuming pesticides or other harmful substances.
Eight independent populations of house sparrows, were trained to eat plain hulled wheat from four identical food trays on feed tables.
In Experiment 1, sparrows were presented, for 4-day periods, with a choice between plain wheat, anthraquinone treated wheat, and two of the remaining repellent combinations (anthraquinone and cinnamon oil, anthraquinone and blue dye, anthraquinone and d-pulegone (at 0.5% wt or 2.0% wt concentrations)) until all sparrow populations had been exposed to each repellent.
The consumption of plain wheat and anthraquinone treated wheat was compared to the consumption of the repellent combinations every 24 hr.

[5] = test system: brushtail possums; settings: Day et al, 2000; cited from earlier work
[6] = test system: rats; settings: Day et al, 2000; cited from earlier work
[7] = test system: several bird species; settings: 1% w/w concentration; including European starlings and northern bobwhites; cited from earlier work
[8] = Example 1, by bait treatment (cereal, carrot, paste baits), first exposure
[9] = Example 1, by bait treatment, first exposure
[10] = Example 1, by bait treatment, subsequent exposures
[11] = Example 2, carrot baits, first exposure
[12] = Example 2, carrot baits, subsequent exposures

Row | Molecule | Proportion of bait stations left untouched [1, 8] | Proportion of bait stations with bait eaten when encountered [1, 9] | Proportion of bait stations left untouched [1, 10] | Proportion of bait stations with bait eaten when encountered [1, 10] | Proportion of bait stations eaten when encountered [2, 9] | Proportion of bait stations left untouched [2, 9] | Proportion of bait stations eaten when encountered [2, 10] | Proportion of bait stations left untouched [2, 10] | Amount of wheat eaten by sparrows relative to control wheat or single repellents [3] | Acceptance of treated baits by possums [5] | Acceptance of treated baits by rats / wild rodents [6] | other results
1 | O=C1c2ccccc2C(=O)c2ccccc21 [Anthraquinone] | 0.67 | 0.80 | 0.35 | 1.00 | 1.00 | 0.64 | 0.65 | 0.57 | reduced the amount of wheat eaten by sparrows on days 3 and 4 | readily eaten by possums | readily take anthraquinone treated baits from bait stations | Wheat consumption, percentage of that offered [4]: 54%
2 | NC(=O)C=Cc1ccccc1 [Cinnamamide, cinnamamide] | 0.55 | 0.71 | 0.29 | 0.95 | 0.67 | 0.77 | 0.70 | 0.66 |  |  |  | 
3 | CC(C)=C1CC[C@@H](C)CC1=O [d-pulegone, d-Pulegone] | 0.52 | 0.87 | 0.30 | 0.98 | 0.70 | 0.63 | 0.75 | 0.55 | reduced the quantity of wheat eaten by sparrows on days 1, 3 and 4 | readily take carrot baits | readily take carrot baits | Repellence of birds [7]: repel several bird species
4 | Salt | 0.37 | 0.30 | 0.29 | 0.38 | 0.00 | 0.86 | 0.16 | 0.72 |  |  |  | Proportion of bait stations eaten when encountered [1, 11]: 1.00; Proportion of bait stations left untouched [1, 11]: 0.82; Proportion of bait stations eaten when encountered [1, 12]: 0.43*; Proportion of bait stations left untouched [1, 12]: 0.30*; Proportion of bait stations eaten when encountered [2, 11]: 0.22; Proportion of bait stations left untouched [2, 11]: 0.18; Proportion of bait stations eaten when encountered [2, 12]: 0.33*; Proportion of bait stations left untouched [2, 12]: 0.50
